Literature values as cited in patent publication US20230330230A1, “SENSITISER FOR CANCER TREATMENT” (KORTUC INC, priority 2020, published 2023).

How the values were obtained:
[1] = test system: prostate cancer (PC-3) cell line
[2] = test system: osteosarcoma (HS-Os-1) cell line
[3] = 0.1 mM H2O2 prior to IR, without DNA double strand breaks

SMILES: OO [H2O2, hydrogen peroxide]
- response to H2O2 alone [1]: extreme resistance
- effect of H2O2 prior to IR [1, 3]: enhanced cytotoxicity
- response to H2O2 alone [2]: extreme resistance
- effect of H2O2 prior to IR [2, 3]: enhanced cytotoxicity
